# Where no end group is shown, it is not given here.
# Tests used:
# smooth muscle = settings: cited from earlier work
# [1] = test system: myosin superfamily members from classes I, V, and X; settings: cited from earlier work
# SHP-1: β-actin complex = test: SHP-1 immunoprecipitation and anti-β-actin immunoblotting in YTS-2DL1 cells incubated with target cells; type: cell-based; settings: inhibitory 221-Cw4 cells; 0.5 μM CytD
# Procedure: YTS-2DL1 cells were incubated at 37° C. with 221-Cw4 or Cw7 cells for 5 min, 1 μM of JAS was added, and cells were incubated for 5 min. Cell lysates were subjected to IP of SHP-1 and IB with anti-β-actin or anti-SHP-1 antibodies. Shown data represent at least three independent experiments.
# In FIG. 8D, YTS-2DL1 cells were incubated at 37° C. with 221-Cw4 or Cw7 cells for 5 min, 0.5 μM of CytD was added, and the cells were incubated for an additional 5 min. The cells were lysed, and IPs of SHP-1 were subjected to IB using anti-β-actin or anti-SHP-1. Results shown are representative of three independent experiments.
# NK cells (primary or YTS) and ‘221’ target cells (either expressing HLA-Cw4, Cw7 or no HLA) were first incubated separately on ice for 10 min, at a ratio of 1:1. The cells were then mixed, centrifuged and kept on ice for 15 min. The cell mixture was then transferred to 37° C., for the indicated period of time, and subsequently lysed with ice-cold lysis buffer.
# For analysis of whole cell lysates, 1-10×10^5 cells were used, and for IP experiments, 10-15×10^6 cells were used. Protein A/G plus-Agarose beads (Santa Cruz Biotechnology) were used for IP. […] Immunoreactive proteins were detected with either anti-mouse or anti-rabbit horseradish peroxidase-coupled secondary antibody followed by detection by enhanced chemiluminescence (PerkinElmer).
# [2] = test system: F-actin retrograde flow in YTS and pNK F-tractin GFP cells; test: Live cell imaging and kymograph analysis of F-actin retrograde flow (ARF) in F-tractin GFP NK cells; type: cell-based; settings: 0.5 μM CytD, anti-CD28 or anti-KIR2DL1
# From the text: FIGS. […] In FIG. 5A, YTS F-tractin GFP cells were dropped over coverslips coated with anti-CD28 or anti-KIR1 antibodies, and imaged at 1 frame/sec through a single focal plane. […] Representative images are shown. Kymographs of F-actin dynamics were compiled along the contact site radius. […]
# The y axis represents F-actin velocity (μm/sec), and the x axis—time from initial spreading (sec).
# FIGS. 5E-5H. show analyses of NKIS area and ARF in the activating vs. inhibitory NKIS in the presence of Y-27632 (Y-27) inhibitor of myosin light chain (MLC) phosphorylation and/or JAS. […] NKIS area was determined using ImageJ. […]
# Analyses of actin and SHP-1 dynamics were performed by preparing kymographs from live cell videos and tracing the movement of the fluorescently tagged proteins. […] Velocity over distance from the center was determined by calculating the velocity of the tracked protein based on the distance traversed to time between each two points on the trace, and noting the relative location from the center of the measured area. […] For each bin, average velocity and standard error were calculated. Average distance traversed over time was calculated by measuring the location of the trace, relative to its point of origin at each time point after the beginning of the trace. For each relative time point from the beginning of a trace, an average distance and standard error were calculated. […]
# SHP-1 [3] = test: PTP assay: SHP-1 catalytic activity (pNPP hydrolysis) after treatment of NK-target cell conjugates; type: cell-based; settings: YTS-2DL1 + 221-Cw4, untreated 100%; 0.5 μM CytD
# Procedure: YTS-2DL1 cells were pretreated with 25 μM Y-27 or left untreated. Cells were incubated at 37° C. with target cells for 5 min, 1 μM of JAS was added, and samples were incubated for 5 minutes before lysis. IP of SHP-1 was performed, and precipitates were incubated with pNpp. SHP-1 activity was determined by measuring absorbance at 405 nm. The graph represents rates of SHP-1 catalytic activity from three independent experiments.
# In FIG. 8E, YTS-2DL1 cells were incubated at 37° C. with 221-Cw4 or Cw7 cells for 5 min, treated with 0.5 μM of CytD or left untreated, and SHP-1 activity was determined as detailed in the Materials and Methods. Graph summarizing percent of relative SHP-1 catalytic activity obtained by four independent experiments. Data are means±SEM.
# SHP-1 catalytic activity was determined by measuring the hydrolysis of the exogenous substrate p-Nitrophenyl Phosphate (pNPP) by SHP-1, as previously described. NK cells (2-5×10^6) were incubated with target cells at ratio of 1:1, activated as described above, and lysed with passive ice-cold lysis buffer (1% Brij, 1% n-Octyl-b-D-glucoside, 50 mM Tris-HCl, pH 7.4, 150 mM NaCl, 5 mM ethylenediaminetetraacetic acid, and complete protease inhibitor tablets). Cell lysates were subjected to IP with anti-SHP-1 antibody. […] Reactions were terminated by adding 800 μl 1M NaOH, and SHP-1 activity was determined by measuring absorbance at 405 nm.
# SHP-1 [4] = target: T1, SHP-1 (Homo sapiens, UniProt P29350); test: MST analysis for the binding of YFP-SHP-1 and actin-derived peptides; settings: for binding to SHP-1: lysates of HEK 293T cells expressing YFP-SHP-1, peptides 400 μM-48 nM
# T1 construct: expressed in transfected cells; host or cells: HEK 293T cells, unpurified lysate
# From the text: Binding curves were generated by the NanoTemper analysis software (MO.Affinity Analysis v2.1.3). The graph summarizes the changes of the fluorescent thermophoresis signals as a function of peptide concentration from at least three independent experiments. Data are means±SD.
# YFP-tagged SHP-1 was obtained from cell lysates of Human Embryonic Kidney (HEK) 293T cells, transiently transfected with YFP-SHP-1 by DNA-calcium phosphate co-precipitation, as previously described (Reicher B, et al (2012) Molecular and cellular biology 15: 3153-3163). MST measurements were performed using the protein purification-free method described by Khavrutskii et al. (Khavrutskii L, et al (2013) Journal of visualized experiments: JoVE). Briefly, each peptide (Synpeptide) was initially dissolved in Dimethylformamide (DMF), diluted in DDW (supplemented with 1 mM DTT) to reach stock concentration of 80004, and serially diluted (range from 400 μM to 48.8 nM) in HEPES buffer (50 mM, supplemented with 0.05% Tween-20 and 1 mM DTT) in 200 μL PCR-tubes. Then, YFP-SHP-1-containing cell lysate was added to the serially diluted tubes at a 1:1 ratio and the samples were gently mixed. The samples were allowed to incubate at room temperature for 30 min before being loaded into standard-treated Monolith™ capillaries (NanoTemper). After loading into the instrument (Monolith NT.115, NanoTemper), microthermophoresis was carried out using 40% LED power and 40% MST power. The changes of the fluorescent thermophoresis signals were plotted against the concentration of the serially diluted peptides. KD values were determined using the NanoTemper analysis software (MO.Affinity Analysis v2.1.3).
# The SHP-1-β-actin complex formation was also examined using microscale thermophoresis (MST) technology. […] Lysates of HEK 293T cells transiently expressing YFP-SHP-1 were incubated with decreasing concentrations of the different peptides followed by MST analysis.
# CFP-actin [5] = target: CFP-actin (UniProt P60709); test: FRET between YFP-SHP-1 and CFP-actin in YTS cells at the activating NKIS (221-Cw7 target cells)
# CFP-actin [6] = target: CFP-actin (UniProt P60709); test: FRET between YFP-SHP-1 and CFP-actin in YTS cells at the inhibitory NKIS (221-Cw4 target cells)
# [7] = target: YFP-SHP-1 (human SHP-1 wt tagged with YFP) (human) (UniProt P29350); test: MST, peptide titrated into lysate of HEK 293T cells expressing YFP-SHP-1
# [8] = target: YFP-SHP-1 (human SHP-1 wt tagged with YFP) (human) (UniProt P29350); test: MST, lysate of 293T cells expressing YFP-SHP-1 with serially diluted peptide
# T1 sequence (P29350 whole entry): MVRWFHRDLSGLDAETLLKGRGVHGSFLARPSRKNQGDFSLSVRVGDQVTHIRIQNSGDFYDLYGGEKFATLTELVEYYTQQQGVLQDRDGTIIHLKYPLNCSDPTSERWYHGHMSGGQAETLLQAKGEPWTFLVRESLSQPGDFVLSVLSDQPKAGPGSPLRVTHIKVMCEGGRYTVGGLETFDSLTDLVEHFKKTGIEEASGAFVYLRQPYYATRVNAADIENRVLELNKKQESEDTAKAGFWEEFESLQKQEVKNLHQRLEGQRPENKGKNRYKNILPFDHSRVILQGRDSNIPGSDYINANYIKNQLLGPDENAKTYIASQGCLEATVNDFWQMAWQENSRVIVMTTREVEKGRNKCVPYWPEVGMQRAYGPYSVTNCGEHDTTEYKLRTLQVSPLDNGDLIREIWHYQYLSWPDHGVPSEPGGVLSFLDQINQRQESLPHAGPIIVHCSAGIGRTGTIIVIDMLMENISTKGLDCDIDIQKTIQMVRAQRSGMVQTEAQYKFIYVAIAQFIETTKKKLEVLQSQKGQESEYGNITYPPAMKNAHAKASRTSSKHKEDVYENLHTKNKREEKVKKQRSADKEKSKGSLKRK
molecule,measurement,setting,value
Cc1ccc2c(c1)C(=O)C1(O)CCN(c3ccccc3)C1=N2 (stereo not drawn) [Blebbistatin],IC50,smooth muscle,80 µM
same,inhibition,[1],does not inhibit
"C=C1[C@@H](C)[C@H]2C(Cc3ccccc3)NC(=O)[C@]23[C@H](OC(C)=O)/C=C/[C@@](C)(O)C(=O)[C@@H](C)C/C=C/[C@H]3[C@@H]1O (stereo partly drawn) [CytD, Cytochalasin D]",SHP-1 binding to β-actin,SHP-1: β-actin complex,increased binding of SHP-1 to β-actin
same,ARF velocity at the LP,[2],significant reduction in ARF velocity
same,relative SHP-1 catalytic activity,SHP-1 [3],55.4±8.4%
EYQKASGVSG (irrelevant control peptide),binding to SHP-1,SHP-1 [4],no binding was detected
"KEKLCFVALDF (mutant actin peptide) [Y-F mutant, single aa mutant form of the β-actin peptide, tyrosine to phenylalanine substitution]",binding to SHP-1,SHP-1 [4],no binding was detected
"KEKLCYVALDF [WT actin peptide, KEKLCYVALDF]",Kd,SHP-1 [4],39.5 ± 6.2 µM
YFP-SHP-1 (human SHP-1 wt tagged with YFP) (from UniProt P29350 1-595) (enzyme),FRET efficiency,CFP-actin [5],8.5%
same,FRET efficiency,CFP-actin [6],18.9%
KEKLCYVALDF [WT β-actin derived peptide containing an ITIM motif (…)],Kd,[7],39.5 µM
same,EC50 (read off the curve),[8],40 µM

# Source: US20190343801A1, “COMPOSITIONS AND METHODS FOR CONTROLLING NATURAL KILLER CELL ACTIVATION AND FUNCTION” (BAR ILAN UNIVERSITY, priority 2017, published 2019)
